Measured values reported in ChEMBL document CHEMBL1124880 (J Med Chem, 1990).

Experiments:
Phosphodiesterase 1 = Phosphodiesterase 1 (Rattus norvegicus, UniProt Q63421+Q9EPR9+Q01066); test: Evaluated for Ca++ dependent phosphodiesterase activity.; assay type: functional
Rattus norvegicus [1] = organism: Rattus norvegicus; test: Evaluated for Ca++ independent phosphodiesterase activity.; assay type: functional
Rattus norvegicus [2] = organism: Rattus norvegicus; test: Minimal effective dose in an rat anti-immobility effect using behavioral despair test; assay type: functional; conditions: read-out: MED
Adenosine receptor A1 [3] = biological target: T1, Adenosine receptor A1 (Rattus norvegicus, UniProt P25099); test: Binding affinity towards the adenosine A1 receptor in cerebral cortices of Sprague-Dawley male rats using [3H]CHA as radioligand.
T1 sequence (P25099 whole entry): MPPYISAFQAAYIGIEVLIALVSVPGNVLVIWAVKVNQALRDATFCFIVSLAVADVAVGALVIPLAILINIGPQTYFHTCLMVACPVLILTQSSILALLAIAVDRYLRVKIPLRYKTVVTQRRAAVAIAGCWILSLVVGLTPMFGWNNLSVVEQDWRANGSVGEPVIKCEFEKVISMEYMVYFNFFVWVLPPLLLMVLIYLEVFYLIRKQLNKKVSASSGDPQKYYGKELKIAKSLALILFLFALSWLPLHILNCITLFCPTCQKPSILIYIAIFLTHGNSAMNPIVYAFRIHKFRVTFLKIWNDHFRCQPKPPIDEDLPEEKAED

Adenosine A2 receptor [4] = biological target: T2, Adenosine A2 receptor (Rattus norvegicus, UniProt P29276+P30543)
Adenosine receptor A1 [5] = biological target: T1, Adenosine receptor A1; test: Evaluated for the binding affinity towards the Adenosine A1 receptor in cerebral cortices of Sprague-Dawley male rats using [3H]CHA as radioligand.
Adenosine A2 receptor [6] = biological target: T2, Adenosine A2 receptor; test: Binding affinity for Adenosine A2 receptor in corpora striata of rats using [3H]NECA; assay type: protein assay
Adenosine receptor A1 [7] = biological target: T1, Adenosine receptor A1
Adenosine receptor A1 [8] = biological target: T1, Adenosine receptor A1; test: Binding affinity for Adenosine A1 receptor in cerebral cortices of Sprague-Dawley male rats using [3H]-CHA
[9] = biological target: Adenosine receptor A1 (Rattus norvegicus) (UniProt P25099); test: Binding affinity for Adenosine A1 receptor in cerebral cortices of Sprague-Dawley male rats using [3H]CHA

IC50 (Phosphodiesterase 1)	IC50 (Rattus norvegicus [1]) [nM]	IC50 (Adenosine receptor A1 [3]) [nM]	IC50 (Adenosine A2 receptor [4])	IC50 (Adenosine receptor A1 [5]) [nM]	Ki (Adenosine A2 receptor [6]) [nM]	Ki (Adenosine receptor A1 [7]) [nM]	IC50 (Adenosine receptor A1 [8]) [nM]	IC50 [9] [nM]	Structure (SMILES)	minimal effective dose (Rattus norvegicus [2]) [mg/kg]
>> 10 uM	10000	–	–	–	–	–	–	–	Clc1ccc2nc(N3CCNCC3)c3nnc(-c4ccccc4)n3c2c1	> 32
> 100 µM	6000	4500	13000 nM	–	–	–	–	–	CC(C)Nc1nc2cc(F)ccc2n2cnnc12	> 32
3 µM	7000	> 10000	–	–	–	–	–	–	c1ccc2c(c1)nc(N1CCNCC1)c1nncn12	> 32
1 µM	1000	24	2300 nM	–	–	–	–	–	CC(C)Nc1nc2ccc(Cl)cc2n2c(C(F)(F)F)nnc12	≤ 3.2
20 µM	2500	1800	9500 nM	–	–	–	–	–	CCNc1nc2ccccc2n2c(CC)nnc12	3.2
0.1 µM	3700	7400	–	–	–	–	–	–	CCc1nnc2c(N(CC)CC)nc3ccccc3n12	3.2
>> 10 uM	40000	580	170 nM	–	–	–	–	–	CCc1nnc2c(N)nc3cc(F)ccc3n12	3.2
>> 10 uM	> 10000	6800	> 100000 nM	–	–	–	–	–	CCc1nnc2c(NC(C)C)nc3c(Cl)cccc3n12	≤ 32
2 µM	500	60	1700 nM	–	–	–	–	–	CCc1nnc2c(NC(C)C)nc3ccc(Cl)cc3n12	≤ 3.2
3 µM	300	660	6400 nM	–	–	–	–	–	CCc1nnc2c(NC(C)C)nc3ccccc3n12	10
24 µM	370	57	3900 nM	–	–	–	–	–	CC(C)Nc1nc2ccc(F)cc2n2c(C(F)(F)F)nnc12	≤ 3.2
> 10 µM	> 10000	3200	> 100000 nM	–	–	–	–	–	CC(C)Nc1nc2ccc(Cl)cc2n2c(-c3ccccc3)nnc12	< 32
>> 10 uM	> 10000	1400	100 nM	–	–	–	–	–	COc1ccc2c(c1)nc(N)c1nncn12	3.2
–	–	730	3500 nM	–	–	–	–	–	CC(C)Nc1nc2ccc(F)cc2n2c(O)nnc12	> 32
0.1 µM	3500	7000	13000 nM	–	–	–	–	–	CC(C)Cn1c(=O)n(C)c(=O)c2nc[nH]c21 [ISOBUTYLMETHYLXANTHINE]	> 32
–	–	380	> 100000 nM	–	–	–	–	–	CCc1nnc2c(Nc3ccccc3)nc3ccc(Cl)cc3n12	> 32
–	–	–	–	6.5	50000	3	–	–	OC[C@H]1O[C@@H](n2cnc3c(Nc4ccccc4)ncnc32)[C@H](O)[C@@H]1O [N6-PHENYLADENOSINE]	–
–	–	5.5	2100 nM	–	–	–	–	–	FC(F)(F)c1nnc2c(NC3CCCC3)nc3ccc(Cl)cc3n12	> 32
–	–	–	–	3700	–	–	–	–	CC(C)Nc1ncnc2c1ncn2[C@@H]1O[C@H](CO)[C@@H](O)[C@H]1O	–
–	–	20	890 nM	–	–	–	–	–	CCc1nnc2c(NC3CCCC3)nc3ccc(Cl)cc3n12	> 32
–	–	4600	400 nM	–	–	–	–	–	Nc1nc2ccccc2n2cnnc12	3.2
–	–	160	6500 nM	–	–	–	–	–	COc1nnc2c(NC(C)C)nc3ccc(F)cc3n12	≤ 32
–	–	44	4100 nM	–	–	–	–	–	CCc1nnc2c(NC3CCCCC3)nc3ccc(Cl)cc3n12	> 32
> 10 µM	200	–	–	–	–	–	–	–	CCNc1nc2cc(Cl)ccc2n2c(CC)nnc12	3.2

IC50 (Phosphodiesterase 1)	IC50 (Rattus norvegicus [1]) [nM]	IC50 (Adenosine receptor A1 [3]) [nM]	IC50 (Adenosine A2 receptor [4])	IC50 (Adenosine receptor A1 [5]) [nM]	Ki (Adenosine A2 receptor [6]) [nM]	Ki (Adenosine receptor A1 [7]) [nM]	IC50 (Adenosine receptor A1 [8]) [nM]	IC50 [9] [nM]	Structure (SMILES)	minimal effective dose (Rattus norvegicus [2]) [mg/kg]
–	–	710	4500 nM	–	–	–	–	–	CCNc1nc2ccc(OC)cc2n2c(CC)nnc12	> 32
–	–	140	36 nM	–	–	–	–	–	CCc1nnc2c(N)nc3cc(OC)ccc3n12	> 32
> 10 µM	6000	32	60000 nM	–	–	–	–	–	Fc1ccc2nc(NC3CCCCC3)c3nnc(C(F)(F)F)n3c2c1	> 32
70 µM	170000	–	–	–	–	–	–	–	Cn1c(=O)c2c(ncn2C)n(C)c1=O [CAFFEINE]	3.2
–	–	3200	17000 nM	–	–	–	–	–	CCNc1nc2ccc(F)cc2n2cnnc12	3.2
2 µM	12000	430	62 nM	–	–	–	–	–	CCc1nnc2c(N)nc3ccccc3n12	3.2
–	–	3400	>= 1 uM	–	–	–	–	–	Nc1nc2ccc(Cl)cc2n2cnnc12	10
1.2 µM	3000	27000	42000 nM	–	–	–	–	–	CCN(CC)c1nc2ccccc2n2cnnc12	10
–	–	75	29 nM	–	–	–	–	–	CCc1nnc2c(N)nc3cc(Cl)ccc3n12	≤ 3.2
> 100 µM	4500	680	6900 nM	–	–	–	–	–	CC(C)Nc1nc2ccc(F)cc2n2cnnc12	≤ 3.2
> 10 µM	4000	2900	1000 nM	–	–	–	–	–	Nc1nc2ccc(F)cc2n2cnnc12	≤ 32
–	–	680	> 100000 nM	–	–	–	–	–	CCc1nnc2c(N[C@@H](C)Cc3ccccc3)nc3ccc(Cl)cc3n12	> 32
> 10 µM	> 10000	28	> 100000 nM	–	–	–	–	–	FC(F)(F)c1nnc2c(NC3CCCCC3)nc3ccc(Cl)cc3n12	> 32
–	–	840	700 nM	–	–	–	–	–	Nc1nc2ccc(F)cc2n2c(O)nnc12	10
–	–	24	3100 nM	–	–	–	–	–	CC(C)Nc1nc2ccc(Cl)cc2n2c(C(F)(F)C(F)(F)F)nnc12	32
–	–	280	6400 nM	–	–	–	–	–	CCc1nnc2c(NC(C)C)nc3cc(F)c(F)cc3n12	≤ 32
–	–	–	33 nM	–	–	–	510	–	Nc1nc2ccc(Cl)cc2n2c(-c3ccc(Cl)cc3)nnc12	–
–	–	4100	17000 nM	–	–	–	–	–	CC(C)Nc1nc2ccccc2n2cnnc12	3.2
–	–	290	100 nM	–	–	–	–	–	Nc1nc2ccc(F)cc2n2c(C(F)(F)F)nnc12	1
–	–	110	3200 nM	–	–	–	–	–	CCc1nnc2c(NC(C)C)nc3cc(Cl)c(Cl)cc3n12	≤ 32
>> 10 uM	> 10000	–	–	–	–	–	–	–	CCCN(CCC)c1nc2ccc(F)cc2n2c(C(F)(F)F)nnc12	> 32
–	–	–	–	–	–	–	–	12000	CCc1nnc2c(N(C)C)nc3ccccc3n12	≤ 3.2
> 10 µM	2000	65	44 nM	–	–	–	–	–	Nc1nc2ccc(Cl)cc2n2c(C(F)(F)F)nnc12	3.2

Structure (SMILES)	IC50 (Phosphodiesterase 1)	IC50 (Rattus norvegicus [1]) [nM]	IC50 (Adenosine receptor A1 [3]) [nM]	IC50 (Adenosine A2 receptor [4])	IC50 (Adenosine receptor A1 [5]) [nM]	Ki (Adenosine A2 receptor [6]) [nM]	Ki (Adenosine receptor A1 [7]) [nM]	IC50 (Adenosine receptor A1 [8]) [nM]	IC50 [9] [nM]	minimal effective dose (Rattus norvegicus [2]) [mg/kg]
COc1ccc(C2CNC(=O)C2)cc1OC1CCCC1 (stereo not given) [ROLIPRAM]	> 100 µM	250	> 100000	> 100000 nM	–	–	–	–	–	> 32
